Entries after “also recorded” stand apart in the source; their conditions may differ. Each block holds one compound with its values, some of them ahead of it.
Assays:
[1] = molecular target: T1, recombinant human E-selectin/CD63E Fc Chimera (Homo sapiens, UniProt P16581); assay: E-Selectin Activity - Analysis by SPR; type: binding; settings: Biacore X100, E-selectin captured on anti-human IgG (Fc) chip
T1 construct: Fc (human IgG Fc fusion partner); purchased R & D systems
Description: Surface Plasmon Resonance (SPR) measurements were performed on a Biacore X100 instrument (GE Healthcare). A CM5 sensor chip (GE Healthcare) was used for the interaction between E-selectin and GMI compound. Anti-human IgG (Fc) antibody (GE Healthcare) was immobilized onto the chip by amine coupling according to the manufacturer's instructions. In brief, after a 7-min injection (flow rate of 5 μl/min) of 1:1 mixture of N-ethyl-N′-(3-dimethylaminopropyl) carbodiimide hydrochloride and N-hydroxysuccinimide, anti-human IgG (Fc) antibody (25 μg/ml in 10 mM sodium acetate buffer, pH 5.0) was injected using a 6-min injection at 5 μl/min. Remaining activated groups were blocked by injecting 1 M ethanolamine/HCl, pH 8.5. The recombinant human E-selectin/CD63E Fc Chimera (50 μg/ml) (R & D systems) was injected into the experimental cell until 6000-7000 RU was captured onto the antibody surface. No recombinant human E-selectin/CD63E was injected into the control cell. Increasing concentrations of GMI compound samples were injected at 30 μl/min into both flow cells and all sensorgrams were recorded against the control. Regeneration of the anti-human IgG (Fc) surface was achieved by injecting 3M magnesium chloride, followed by 50 mM sodium hydroxide. Data were analyzed using Biacore X100 evaluation/BIA evaluation 4.1.1 software (GE Healthcare) and Graphad prism 6 software.

[2] = test system: TNFα-treated nude mice infused with human sickle RBCs; assay: Sickle cell vaso-occlusion, intravital microscopy and adhesion in nude mouse model; type: in vivo, Nude (nu−/nu−) mice
Description: In vivo treatment: Mice were divided into 3 groups. All mice were first injected I.P. with 500 ng TNFα to induce inflammation, activate the endothelium, and allow adhesion of murine leukocytes. After 2 hours, and once the endothelium is activated and murine leukocytes have already adhered, mice were infused with 200 μl of DIL (rhodamine)-labeled human sickle RBCs at 50% hematocrit (less than 10% murine blood volume assuming that blood volume for a 20 g weight mouse is 1.5 ml). We injected I.V. the three animal groups with the first dose of either Compound 45 at 20 μg/kg or 40 μg/kg, or saline (10 mL/kg) as vehicle immediately after infusion of human RBCs. The second dose was given 30 minutes later.
Window chamber surgery: Surgery was performed before TNFα administration. General anesthesia was achieved by exposing nude mice to isoflurane. A double-sided titanium frame window chamber was surgically implanted into the dorsal skin fold under sterile conditions using a laminar flow hood. Surgery involved carefully removing the epidermal and dermal layers of one side of a dorsal skin fold, exposing the blood vessels of the subcutaneous tissue adjacent to the striated muscles of the opposing skin fold, and then securing the two sides of the chamber to the skin using stainless steel screws and sutures. A glass window was placed in the chamber to cover the exposed tissue and secured with a snap ring.
Animal treatments, and fluorescence intravital microscopy: Anesthetized nude mice were first injected with 500 ng TNFα. After two hours, mice were infused with 200 μl DIL (rhodamine)-labeled human sickle RBCs at 50% hematocrit DIL through the dorsal tail vein.
Immediately after human RBC injection, nude mice were then injected I.V. with the first dose of either Compound 45 at 20 μg/kg (n=4) or 40 μg/kg (n=3), or saline (10 mL/kg) as vehicle (n=5). Videos were recorded for 30 minutes at different locations within the dorsal skin-fold window chamber to accurately determine the effects of Compound 45 on human sickle cell adhesion to the vascular endothelium and adherent murine leukocytes, and vaso-occlusion in the nude mice. Thirty minutes later, the second dose of either Compound 45 at 20 μg/kg (n=4) or 40 μg/kg (n=3), or vehicle (n=5) was injected I.V., and intravital microscopy measurements of blood cell flow dynamics in post-capillary venules and arterioles were resumed for another 30 minutes on anesthetized nude mice. Videos were again recorded at different locations within the dorsal skin-fold window chamber to accurately determine the effects of the second dose of Compound 45 on blood cell adhesion to the vascular endothelium, and vaso-occlusion. Videos were produced using 10× and 20× magnifications.
Cell adhesion was quantified on still images by measuring the fluorescence intensity [fluorescence unit (FU)] of adherent fluorescence-labeled human sickle cells using ImageJ software downloaded from the NIH website. Blood flow was also determined by counting the number of vessels with normal blood flow, slow blood flow, and no blood flow by frame-by-frame analysis of video replay. The values were averaged among groups of animals (n=5 for vehicle, n=4 for 40 μg/kg total Compound 45, and n=3 for 80 μg/kg total Compound 45) for non-blinded statistical analysis.
(§1) Method of Analysis: Human sickle RBC adhesion is presented as FU, blood flow as % normal blood flow, % slow blood flow and % no blood flow (or occluded vessels), and circulating human sickle RBCs as number of circulating sickle RBCs.

[3] = test system: TNFα-treated nude mice infused with human sickle RBCs; assay: Flow cytometry analysis of circulating human sickle RBCs in nude mice; type: in vivo, Nude (nu−/nu−) mice
Description: Flow cytometry analysis of circulating human sickle RBCs: Following intravital microscopy, blood samples were collected from nude mice treated with vehicle (n=3), 40 μg/kg total Compound 45 (n=3), and 80 μg/kg total Compound 45 (n=2), through cardiac puncture into EDTA tubes to determine the number of circulating human sickle RBCs by flow cytometry.
as §1

[4] = test system: TNFα-treated HbSS-Townes mice; assay: Sickle cell vaso-occlusion, intravital microscopy and adhesion in Townes mouse model; type: in vivo
Description: In vivo treatment: Townes mice were divided into 3 groups. All mice were first injected I.V. with PE-anti-mouse TER-119 antibody (10 μg/g BW) to label RBCs. Thirty minutes later, animals are injected with 500 ng TNFα I.P. to induce vaso-occlusion. After 90 minutes, and after onset of vaso-occlusion, sickle mice were treated I.V. with the first dose of either Compound 45 at 20 μg/kg or 40 μg/kg, or saline (10 mL/kg) as vehicle. The second dose was given 30 minutes later.
Window chamber surgery: For Townes mice experiments, surgery is carried out under sterile conditions with aseptic technique. Since these mice do have hair, it is necessary to shave and use hair removal cream on the back of the anesthetized mouse prior to cleaning the back of the animals, and performing surgery. Experimental studies are performed immediately after surgery, because in our experience, window chambers are not usable a few days after surgery. The skin is very dry, and blood cells cannot be visualized under the microscopy. In addition, sickle mice have been reported to have a mild inflammatory response to the dorsal skin-fold window chamber implantation, evidenced by elevated levels of serum amyloid P component (SAP) 3 days after surgery.
Intravital microscopy: Anesthetized animals with window chambers were placed on the stage of an Axoplan microscope (Carl Zeiss, Thornwood, N.Y.) and temperature maintained at 37° C. using a thermostatically controlled heating pad. […] Microcirculatory events and cell adhesion were simultaneously recorded using a computer connected to a digital video camera C2400 (Hamamatsu Photonics K.K., Japan). Visible venules were examined for each set of conditions. Arterioles were distinguished from venules based on: 1) observation of divergent flow as opposed to convergent flow; 2) birefringent appearance of vessel walls using transillumination, which is characteristic of arteriolar vascular smooth muscle; and 3) relatively straight vessel trajectory without evidence of tortuosity.
Data Analysis and Statistics were conducted as described above for the nude mouse model.

[5] = after second dose of 20 μg/kg I.V.
[6] = after the first dose of 40 μg/kg I.V.
[7] = after two doses of 40 μg/kg I.V.

T1 sequence (P16581 with tags, fused parts or gaps limits assumed): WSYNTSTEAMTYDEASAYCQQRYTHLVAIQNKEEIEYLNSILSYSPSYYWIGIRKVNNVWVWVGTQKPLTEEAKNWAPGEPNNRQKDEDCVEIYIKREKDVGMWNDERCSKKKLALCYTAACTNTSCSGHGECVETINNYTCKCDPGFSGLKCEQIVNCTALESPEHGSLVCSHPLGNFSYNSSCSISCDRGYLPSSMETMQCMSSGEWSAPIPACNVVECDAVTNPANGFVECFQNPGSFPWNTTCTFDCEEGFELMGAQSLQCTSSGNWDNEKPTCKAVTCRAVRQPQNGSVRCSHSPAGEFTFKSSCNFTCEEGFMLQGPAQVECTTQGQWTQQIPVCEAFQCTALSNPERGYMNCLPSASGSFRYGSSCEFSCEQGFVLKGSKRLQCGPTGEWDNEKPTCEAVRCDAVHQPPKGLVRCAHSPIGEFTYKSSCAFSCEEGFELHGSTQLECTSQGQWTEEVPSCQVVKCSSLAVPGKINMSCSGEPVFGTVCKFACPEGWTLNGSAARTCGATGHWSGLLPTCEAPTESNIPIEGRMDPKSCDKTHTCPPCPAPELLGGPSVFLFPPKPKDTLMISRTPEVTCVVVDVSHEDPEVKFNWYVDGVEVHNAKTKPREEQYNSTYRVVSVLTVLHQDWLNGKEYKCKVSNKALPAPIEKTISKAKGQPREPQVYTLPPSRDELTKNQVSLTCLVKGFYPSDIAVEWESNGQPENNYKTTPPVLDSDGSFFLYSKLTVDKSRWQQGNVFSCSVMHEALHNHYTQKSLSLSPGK

Structure (SMILES): CC[C@H]1C[C@@H](C(=O)NCCNC(=O)CCOCCOCCOCCOCCOCCOCCOCCOCCOCCOCCC(=O)NCCNC(=O)[C@@H]2C[C@H](CC)[C@@H](O[C@@H]3O[C@@H](C)[C@@H](O)[C@@H](O)[C@@H]3O)[C@H](O[C@@H]3O[C@H](CO)[C@H](O)[C@H](O[C@@H](CC4CCCCC4)C(=O)N4CCC4)[C@H]3NC(C)=O)C2)C[C@@H](O[C@@H]2O[C@H](CO)[C@H](O)[C@H](O[C@@H](CC3CCCCC3)C(=O)N3CCC3)[C@H]2NC(C)=O)[C@@H]1O[C@@H]1O[C@@H](C)[C@@H](O)[C@@H](O)[C@@H]1O [Compound 20]
Kd [1]: 0.8 nM

Structure (SMILES): CC[C@H]1C[C@@H](C(=O)NCCNC(=O)CCOCCOCCOCCOCCOCCOCCOCCOCCOCCOCCC(=O)NCCNC(=O)[C@@H]2C[C@H](CC)[C@@H](O[C@@H]3O[C@@H](C)[C@@H](O)[C@@H](O)[C@@H]3O)[C@H](O[C@@H]3O[C@H](CO)[C@H](O)[C@H](O[C@@H](CC4CCCCC4)C(=O)N(C)C)[C@H]3NC(C)=O)C2)C[C@@H](O[C@@H]2O[C@H](CO)[C@H](O)[C@H](O[C@@H](CC3CCCCC3)C(=O)N(C)C)[C@H]2NC(C)=O)[C@@H]1O[C@@H]1O[C@@H](C)[C@@H](O)[C@@H](O)[C@@H]1O [Compound 21]
Kd [1]: 18.3 nM

Structure (SMILES): CC[C@H]1C[C@@H](C(=O)NCCNC(=O)CCOCCOCCOCCOCCOCCOCCOCCOCCOCCOCCOCCOCCOCCOCCOCCOCCOCCC(=O)NCCNC(=O)[C@@H]2C[C@H](CC)[C@@H](O[C@@H]3O[C@@H](C)[C@@H](O)[C@@H](O)[C@@H]3O)[C@H](O[C@@H]3O[C@H](CO)[C@H](O)[C@H](O[C@@H](CC4CCCCC4)C(=O)O)[C@H]3NC(C)=O)C2)C[C@@H](O[C@@H]2O[C@H](CO)[C@H](O)[C@H](O[C@@H](CC3CCCCC3)C(=O)O)[C@H]2NC(C)=O)[C@@H]1O[C@@H]1O[C@@H](C)[C@@H](O)[C@@H](O)[C@@H]1O [Compound 11]
Kd [1]: 8.5 nM

Continued, in another order:

Kd [1]: 2.1 nM
Structure (SMILES): CC[C@H]1C[C@@H](C(=O)NCCNC(=O)NCCNC(=O)[C@@H]2C[C@H](CC)[C@@H](O[C@@H]3O[C@@H](C)[C@@H](O)[C@@H](O)[C@@H]3O)[C@H](O[C@@H]3O[C@H](CO)[C@H](O)[C@H](O[C@@H](CC4CCCCC4)C(=O)N4CCC4)[C@H]3NC(C)=O)C2)C[C@@H](O[C@@H]2O[C@H](CO)[C@H](O)[C@H](O[C@@H](CC3CCCCC3)C(=O)N3CCC3)[C@H]2NC(C)=O)[C@@H]1O[C@@H]1O[C@@H](C)[C@@H](O)[C@@H](O)[C@@H]1O [Compound 45]
percentage of the total occluded vessel segments [2, 5]: 2% | total venules with slow blood flow [2, 5]: 16% | human SSRBC adhesion compared to vehicle ([2]; after second dose of 20 μg/kg I.V. (40 μg/kg total), 30 min interval): significantly diminished | percentage of obstructed total vessels [2, 6]: 2% | vessels with slow blood flow [2, 6]: 12% | percentage of obstructed total vessels [2, 7]: 4% | vessels with slow blood flow [2, 7]: 8% | blood flow in inflamed vessels ([2]; dose not given): improves blood flow | human SSRBC adhesion after the inflammatory trigger of vaso-occlusion ([2]; dose not given): reduces human SSRBC adhesion | human SSRBC adhesion compared to vehicle ([2]; one dose of 20 μg/kg I.V.): failed to reduce SSRBC adhesion | human SSRBC adhesion ([2]; one dose of 40 μg/kg I.V.): marked anti-SSRBC adhesive activity | human SSRBC adhesion ([2]; two doses of 40 μg/kg I.V. (80 μg/kg total), 30 min interval): marked anti-SSRBC adhesive activity; also recorded: effective in reducing cell adhesion in venules and vaso-occlusion and restoring blood flow | number of circulating human SSRBCs compared to vehicle ([3]; two doses of 20 μg/kg I.V. at 30 min interval): increased significantly | number of circulating human SSRBCs compared to vehicle ([3]; two doses of 40 μg/kg I.V. at 30 min interval): increased significantly | SSRBC adhesion after the inflammatory trigger of vaso-occlusion ([4]; dose not given): reduces SSRBC adhesion | blood flow in inflamed vessels ([4]; dose not given): improves blood flow | adhesion of the sickle cells ([4]; two 20 μg/kg doses I.V.): significantly diminished | reduction of the percentage of the total occluded vessel segments ([4]; two 20 μg/kg doses or two 40 μg/kg doses I.V.): 80-90% | adhesion of the sickle cells ([4]; two 40 μg/kg doses I.V. (80 μg/kg total)): significantly diminished; also recorded: effective in reducing sickle RBCs adhesion in venules and vaso-occlusion and restoring blood flow

Kd [1]: 6.4 nM
Structure (SMILES): CCC1CC(C(=O)NCCNC(=O)c2cn(CCOCCC(=O)NCCCC[C@H](NC(=O)CCOCCn3cc(C(=O)NCCNC(=O)C4CC(CC)[C@@H](O[C@@H]5OC(C)[C@@H](O)[C@H](O)C5O)[C@H](O[C@@H]5O[C@@H](CO)[C@H](O)C(O[C@@H](CC6CCCCC6)C(=O)O)C5NC(C)=O)C4)nn3)C(=O)O)nn2)C[C@@H](O[C@@H]2O[C@@H](CO)[C@H](O)C(O[C@@H](CC3CCCCC3)C(=O)O)C2NC(C)=O)[C@@H]1O[C@@H]1OC(C)[C@@H](O)[C@H](O)C1O (stereo partly shown) [Compound 38]

Kd [1]: 3.2 nM
Structure (SMILES): CC[C@H]1C[C@@H](C(=O)NCCNC(=O)c2cn(CCOCCOCCn3cc(C(=O)NCCNC(=O)[C@@H]4C[C@H](CC)[C@@H](O[C@@H]5O[C@@H](C)[C@@H](O)[C@@H](O)[C@@H]5O)[C@H](O[C@@H]5O[C@H](CO)[C@H](O)[C@H](O[C@@H](CC6CCCCC6)C(=O)O)[C@H]5NC(C)=O)C4)nn3)nn2)C[C@@H](O[C@@H]2O[C@H](CO)[C@H](O)[C@H](O[C@@H](CC3CCCCC3)C(=O)O)[C@H]2NC(C)=O)[C@@H]1O[C@@H]1O[C@@H](C)[C@@H](O)[C@@H](O)[C@@H]1O [Compound 28]

From patent US20220257775A1 (GLYCOMIMETICS, INC., priority 2019, published 2022)
